In ChEMBL document CHEMBL1201862, “PubChem BioAssay data set” (2004):
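How tested: cells in 96-well plates exposed to compound for 48 hours at five concentrations. GI50: concentration for 50% inhibition of growth.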 Calls of active or inactive are those of the source. Cut-off read from the data, not from the text of the source: active = GI50 up to about 1.1 µM and inactive = higher.

Assays:
Assay in all cases: NCI-60 cell line screen, 48 h
CAKI-1 = system: CAKI-1
COLO 205 = system: COLO 205
HOP-92 = system: HOP-92
Malme-3M = system: Malme-3M
NCI-H226 = system: NCI-H226
NCI-H23 = system: NCI-H23
NCI-H522 = system: NCI-H522
OVCAR-5 = system: OVCAR-5
SF-268 = system: SF-268
SF-295 = system: SF-295
SF-539 = system: SF-539
SK-MEL-2 = system: SK-MEL-2
SN12C = system: SN12C
SNB-19 = system: SNB-19
SNB-75 = system: SNB-75
SW-620 = system: SW-620
HOP-62 = system: HOP-62
K562 = system: K562
MOLT-4 = system: MOLT-4
M14 = system: M14

Measured: GI50

O=C1C=CC=C/C1=C1/SC(c2ccccc2)=C(O)N1c1ccccc1
inactive: CAKI-1 > 100 µM | COLO 205 > 100 µM | HOP-92 > 100 µM | Malme-3M > 100 µM | NCI-H226 > 100 µM | NCI-H23 > 100 µM | NCI-H522 > 100 µM | OVCAR-5 > 100 µM | SF-268 > 100 µM | SF-295 > 100 µM | SF-539 > 100 µM | SK-MEL-2 > 100 µM | SN12C > 100 µM | SNB-19 > 100 µM | SNB-75 > 100 µM | SW-620 > 100 µM

COc1ccc(/C=N/n2c(C)nc3c(sc(=S)n3-c3ccccc3)c2=O)cc1
inactive: COLO 205 > 100 µM | HOP-62 66.8 µM | HOP-92 40.7 µM | K562 25.6 µM | MOLT-4 34.4 µM | NCI-H226 > 100 µM | NCI-H23 > 100 µM | NCI-H522 21.4 µM | OVCAR-5 > 100 µM | SF-268 44.8 µM | SF-295 37.2 µM | SF-539 47.3 µM | SNB-19 82.4 µM | SNB-75 14.4 µM | SW-620 > 100 µM

O=C1CC(CC(OCc2ccccc2)C(COCc2ccccc2)OCc2ccccc2)CC(=O)N1 (stereo not drawn)
inactive: CAKI-1 19.7 µM | COLO 205 19.2 µM | HOP-62 39.8 µM | HOP-92 39.2 µM | K562 33.7 µM | M14 39.4 µM | MOLT-4 24.3 µM | Malme-3M 19.9 µM | NCI-H226 44.1 µM | NCI-H23 43.1 µM | NCI-H522 23.7 µM | OVCAR-5 44.2 µM | SF-268 58.1 µM | SF-295 34.9 µM | SF-539 60.3 µM | SN12C 44.6 µM | SNB-75 52.7 µM | SW-620 50.6 µM

O=C(O)c1cc(-c2ccc3cc4c(cc3c2)OCO4)nc2ccccc12
inactive: COLO 205 42.4 µM | HOP-62 41.1 µM | HOP-92 20.1 µM | K562 32.5 µM | M14 28 µM | MOLT-4 28.8 µM | Malme-3M 65.2 µM | NCI-H226 42.4 µM | NCI-H23 43.8 µM | NCI-H522 35.3 µM | OVCAR-5 28.5 µM | SF-268 28.6 µM | SF-295 23.8 µM | SF-539 92.9 µM | SK-MEL-2 62.7 µM | SN12C 20.8 µM | SNB-19 25.7 µM | SNB-75 49.7 µM | SW-620 45.2 µM

COc1cc2ccc(CC(N)=O)cc2cc1OC
inactive: COLO 205 > 100 µM | HOP-62 > 100 µM | HOP-92 > 100 µM | K562 > 100 µM | M14 > 100 µM | MOLT-4 > 100 µM | Malme-3M > 100 µM | NCI-H226 > 100 µM | NCI-H23 > 100 µM | NCI-H522 > 100 µM | OVCAR-5 > 100 µM | SF-268 > 100 µM | SF-295 > 100 µM | SF-539 > 100 µM | SK-MEL-2 > 100 µM | SN12C > 100 µM | SNB-19 > 100 µM | SNB-75 40.3 µM | SW-620 > 100 µM

COc1ccc(C(CC(=O)c2ccc(O)cc2)C(C(=O)c2ccc(O)cc2)C(c2ccc(OC)cc2)C2C(=O)NC(=S)NC2=O)cc1 (stereo not drawn)
inactive: COLO 205 16 µM | HOP-62 26.1 µM | HOP-92 46.9 µM | K562 30.5 µM | M14 20.8 µM | MOLT-4 37.7 µM | NCI-H226 18.7 µM | NCI-H522 14.9 µM | OVCAR-5 20.7 µM | SF-268 15.7 µM | SF-295 20 µM | SK-MEL-2 29.8 µM | SN12C 24.7 µM | SNB-19 21.8 µM | SNB-75 25.8 µM | SW-620 23.1 µM

COc1ccc(C2N(NC(=O)c3ccncc3)C(=O)CS2(=O)=O)cc1F (stereo not drawn)
inactive: CAKI-1 > 100 µM | COLO 205 > 100 µM | HOP-62 > 100 µM | HOP-92 > 100 µM | M14 > 100 µM | MOLT-4 14 µM | Malme-3M > 100 µM | NCI-H226 > 100 µM | NCI-H23 > 100 µM | NCI-H522 92.3 µM | OVCAR-5 > 100 µM | SF-268 > 100 µM | SF-295 > 100 µM | SK-MEL-2 > 100 µM | SN12C > 100 µM | SNB-19 > 100 µM | SNB-75 37.6 µM | SW-620 > 100 µM

NC1CCCCC1
inactive: COLO 205 > 56.2 µM | HOP-62 223 µM | HOP-92 258 µM | K562 138 µM | MOLT-4 195 µM | Malme-3M > 562 µM | NCI-H23 > 562 µM | NCI-H522 344 µM | OVCAR-5 386 µM | SF-268 508 µM | SF-539 164 µM | SK-MEL-2 169 µM | SN12C > 562 µM | SNB-19 187 µM | SNB-75 264 µM | SW-620 419 µM

Cc1ccc(CCC(=O)C(=O)O)s1
inactive: CAKI-1 30.9 µM | COLO 205 > 100 µM | HOP-62 > 100 µM | HOP-92 > 100 µM | K562 > 100 µM | M14 > 100 µM | MOLT-4 > 100 µM | Malme-3M > 100 µM | NCI-H23 > 100 µM | NCI-H522 > 100 µM | OVCAR-5 > 100 µM | SF-268 > 100 µM | SF-295 > 100 µM | SF-539 > 100 µM | SK-MEL-2 > 100 µM | SN12C > 100 µM | SNB-19 > 100 µM | SNB-75 > 100 µM | SW-620 > 100 µM

CC(C)OP(=O)(OC(C)C)c1nn(-c2ccc([N+](=O)[O-])cc2)c(=N)s1
inactive: CAKI-1 > 100 µM | COLO 205 > 100 µM | HOP-62 > 100 µM | HOP-92 > 100 µM | K562 61.8 µM | M14 > 100 µM | MOLT-4 75.9 µM | Malme-3M > 100 µM | NCI-H23 > 100 µM | NCI-H522 47.2 µM | OVCAR-5 > 100 µM | SF-268 > 100 µM | SF-295 > 100 µM | SF-539 > 100 µM | SN12C > 100 µM | SNB-19 > 100 µM | SNB-75 15 µM | SW-620 > 100 µM

O=C(O)c1ccc(NS(=O)(=O)Cc2ccccc2)cc1
inactive: CAKI-1 > 100 µM | COLO 205 > 100 µM | HOP-62 > 100 µM | HOP-92 > 100 µM | K562 > 100 µM | M14 > 100 µM | MOLT-4 > 100 µM | Malme-3M > 100 µM | NCI-H23 > 100 µM | NCI-H522 > 100 µM | OVCAR-5 > 100 µM | SF-268 > 100 µM | SF-295 > 100 µM | SF-539 > 100 µM | SK-MEL-2 > 100 µM | SN12C > 100 µM | SNB-19 > 100 µM | SNB-75 > 100 µM | SW-620 > 100 µM
